According to patent US4413005A, “Carbamate derivatives and insecticidal, miticidal or nematocidal compositions containing the same” (priority 1981, dated 1983):
Read-outs that look alike come from different tables or passages of the source.

Experiments:
[1] = tested on: tobacco cutworm (Spodoptera litura); test: Mortality of third-instar larvae of tobacco cutworm on cabbage (Test Example 1); assay type: in vivo
Protocol: Ten third-instar larvae of tobacco cutworm (Spodoptera litura) were placed on a cabbage (one-month-old seedling) planted in a pot, and a 50% emulsion of the compound to be tested was diluted to a specified concentration and applied to the leaves of the plant to fully wet them. The test compound of each specified concentration was tested on two pots.

[2] = tested on: green rice leafhopper (Nephotettix cincticeps); test: Mortality of female adults of green rice leafhopper on paddy rice (Test Example 2); assay type: in vivo; conditions: 72 h
Protocol: An emulsion of specified concentration was prepared from a 50% wettable powder of the compound to be tested and applied to the leaves of paddy rice (one-month-old seedlings) planted in a pot to fully wet the leaves. After the emulsion had been dried, the pot was covered with a net cage, into which 10 female adults of green rice leafhopper (Nephotettix cincticeps) were released. The compound of each specified concentration was tested on two pots.

[3] = tested on: house fly (Musca domestica); test: Local application to house fly, LD50 by Probit method (Test Example 4); assay type: in vivo; conditions: topical, 24 h
Protocol: The compound to be tested was dissolved in a predetermined amount of acetone. The solution was diluted to various concentrations and locally applied to house fly (Musca domestica).

[4] = Acute oral toxicity in male mice, LD50 by Litchfield-Wilcoxon method (Test Example 5); conditions: mouse, in vivo, mortality on the seventh day
Protocol: Compounds of this invention were tested on male mice for acute toxicity by oral administration.

Row | SMILES | mortality at 500 ppm ([1]; 72 h, 500 ppm active ingredient, 50% emulsion diluted, three days later, read-out: Mortality) [%] | mortality at 1000 ppm ([1]; 72 h, 1,000 ppm active ingredient, 50% emulsion diluted, three days later, read-out: Mortality) [%] | mortality at 2000 ppm ([1]; 72 h, 2,000 ppm active ingredient, 50% emulsion diluted, three days later, read-out: Mortality) [%] | mortality at 200 ppm ([2]; 200 ppm active ingredient, from 50% wettable powder, three days later, read-out: Mortality) [%] | mortality at 400 ppm ([2]; 400 ppm active ingredient, from 50% wettable powder, three days later, read-out: Mortality) [%] | mortality at 800 ppm ([2]; 800 ppm active ingredient, from 50% wettable powder, three days later, read-out: Mortality) [%] | LD50 [3] [mg/kg] | LD50 at 168 h [4] [mg/kg] | mortality at 500 ppm ([1]; 72 h) [%] | mortality at 1000 ppm ([1]; 72 h) [%] | mortality at 2000 ppm ([1]; 72 h) [%] | mortality at 200 ppm [2] [%] | mortality at 400 ppm [2] [%] | mortality at 800 ppm [2] [%]
1 | CCOC(=O)CCN(SN(C)C(=O)Oc1cccc2c1OC(C)(C)C2)C(C)C [Example 23, 2,3-Dihydro-2,2-dimethylbenzofuran-7-yl N-(N-isopropyl-N-ethoxycarbonylethylaminosulfenyl)-N-methylcarbamate] | 70 | 85 | 100 | 55 | 85 | 100 | 44.3 | 113 |  |  |  |  |  | 
2 | COC(=O)CCN(SN(C)C(=O)Oc1cccc2c1OC(C)(C)C2)C(C)C [Example 24] |  |  |  |  |  |  | 38.6 | 77 | 75 | 85 | 100 | 60 | 90 | 100
3 | CCCCOC(=O)CCN(SN(C)C(=O)Oc1cccc2c1OC(C)(C)C2)C(C)C [Example 25] |  |  |  |  |  |  | 50.1 | 123 | 75 | 90 | 100 | 65 | 90 | 100
4 | CCCCC(CC)COC(=O)CCN(SN(C)C(=O)Oc1cccc2c1OC(C)(C)C2)C(C)C (stereo not drawn) [Example 26] |  |  |  |  |  |  | 64.7 | 150 | 60 | 80 | 100 | 55 | 75 | 100
5 | CCCCN(CCC(=O)OCC)SN(C)C(=O)Oc1cccc2c1OC(C)(C)C2 [Example 27, 2,3-Dihydro-2,2-dimethylbenzofuran-7-yl N-(N-n-butyl-N-ethoxycarbonylethylaminosulfenyl)-N-methylcarbamate] |  |  |  |  |  |  | 13.8 | 105 | 75 | 90 | 100 | 65 | 90 | 100
6 | CCCCN(CCC(=O)OC)SN(C)C(=O)Oc1cccc2c1OC(C)(C)C2 [Example 28] |  |  |  |  |  |  | 17.7 | 89 | 75 | 90 | 100 | 65 | 90 | 100
7 | CCOC(=O)CCN(SN(C)C(=O)Oc1cccc2c1OC(C)(C)C2)C(C)CC (stereo not drawn) [Example 29] |  |  |  |  |  |  | 22.5 | 120 | 60 | 80 | 100 | 45 | 75 | 100
8 | CCOC(=O)CCN(CC(C)C)SN(C)C(=O)Oc1cccc2c1OC(C)(C)C2 [Example 30] |  |  |  |  |  |  | 23.8 | 133 | 65 | 85 | 100 | 60 | 80 | 100
9 | CCCCCCN(CCC(=O)OCC)SN(C)C(=O)Oc1cccc2c1OC(C)(C)C2 [Example 31] |  |  |  |  |  |  | 33.1 | 135 | 60 | 80 | 100 | 55 | 75 | 100
10 | CCOC(=O)CCN(SN(C)C(=O)Oc1cccc2c1OC(C)(C)C2)C1CCCCC1 [Example 32, 2,3-Dihydro-2,2-dimethylbenzofuran-7-yl N-(N-cyclohexyl-N-ethoxycarbonylethylaminosulfenyl)-N-methylcarbamate] |  |  |  |  |  |  | 32.7 | 107 | 65 | 80 | 100 | 55 | 75 | 100
11 | CCCCN(CC#N)SN(C)C(=O)Oc1cccc2c1OC(C)(C)C2 [Example 33, 2,3-dihydro-2,2-dimethylbenzofuran-7-yl N-(N-butyl-N-cyanomethylaminosulfenyl)-N-methyl-carbamate] |  |  |  |  |  |  | 9.1 | 103 | 75 | 90 | 100 | 70 | 90 | 100
12 | CC(C)N(CC#N)SN(C)C(=O)Oc1cccc2c1OC(C)(C)C2 [Example 34] |  |  |  |  |  |  | 16.7 | 95 | 75 | 90 | 100 | 65 | 90 | 100
